Reference: patent US8367873B2, “Phenyl-substituted bicyclooctane-1,3-dione derivatives” (Bayer Cropscience AG, priority 2008, dated 2013)

What was measured:
Format in all cases: in vivo
[1] = test system: Alopecurus myosuroides; assay: Herbicidal pre-emergence action; settings: pre-emergence method, 80 g/ha, greenhouse, visual assessment vs untreated controls
How it was run: (§1)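 Visual percent effect relative to untreated controls (0% = like control, 100% = dead) assessed three weeks after treatment in the greenhouse. Compounds, as wettable powders in water (600 l/ha, 0.2% wetting agent), were sprayed at different amounts onto covering soil over seeds sown in sandy loam.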

[2] = test system: Echinocloa crus-galli; assay: Herbicidal pre-emergence action; settings: pre-emergence method, 80 g/ha, greenhouse, visual assessment vs untreated controls
How it was run: as §1

[3] = test system: Lolium multiflorum; assay: Herbicidal pre-emergence action; settings: pre-emergence method, 80 g/ha, greenhouse, visual assessment vs untreated controls
How it was run: as §1

[4] = test system: Setaria viridis; assay: Herbicidal pre-emergence action; settings: pre-emergence method, 80 g/ha, greenhouse, visual assessment vs untreated controls
How it was run: as §1

[5] = test system: Alopecurus myosuroides; assay: Herbicidal post-emergence action; settings: post-emergence method; for herbicidal effect against ALOMY (Alopecurus myosuroides): 80 g/ha
How it was run: (§2)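 Visual % herbicidal effect vs untreated controls (100% = plants dead, 0% = as control), ~3 wk after spraying. Plants sown in sandy loam, greenhouse-grown, treated at one-leaf stage (2–3 wk post-sowing). WP formulations, 600 l/ha water + 0.2% wetting agent, various doses.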

[6] = test system: Echinocloa crus-galli; assay: Herbicidal post-emergence action; settings: post-emergence method; for herbicidal effect against ECHCG (Echinochloa crus-galli): 80 g/ha
How it was run: as §2

[7] = test system: Lolium multiflorum; assay: Herbicidal post-emergence action; settings: post-emergence method; for herbicidal effect against LOLMU (Lolium multiflorum): 80 g/ha
How it was run: as §2

[8] = test system: Setaria viridis; assay: Herbicidal post-emergence action; settings: post-emergence method; for herbicidal effect against SETVI (Setaria viridis): 80 g/ha
How it was run: as §2

[9] = test system: monocotylidonous and dicotylidonous weed and crop plants; assay: Herbicidal post-emergence action (other test plants); settings: post-emergence method; for herbicidal effect against AVEFA (Avena fatua): 80 g/ha
How it was run: as §2

[10] = test system: monocotylidonous and dicotylidonous weed and crop plants; assay: Herbicidal pre-emergence action (other test plants); settings: pre-emergence method, 80 g/ha, greenhouse, visual assessment vs untreated controls
How it was run: as §1

SMILES | herbicidal effect ALOMY [1] | herbicidal effect ECHCG [2] | herbicidal effect LOLMU [3] | herbicidal effect SETVI [4] | herbicidal effect against ALOMY (Alopecurus myosuroides) [5] | herbicidal effect against ECHCG (Echinochloa crus-galli) [6] | herbicidal effect against LOLMU (Lolium multiflorum) [7] | herbicidal effect against SETVI (Setaria viridis) [8] | herbicidal effect against AVEFA (Avena fatua) [9] | herbicidal effect AVEFA [10] | pest or weed control at 80 g/ha ([5]; Alopecurus myosuroides, 504 h, read-out: herbicidal effect against ALOMY (Alopecurus myosuroides)) | pest or weed control at 80 g/ha ([6]; Echinochloa crus-galli, 504 h, read-out: herbicidal effect against ECHCG (Echinochloa crus-galli)) | pest or weed control at 80 g/ha ([7]; Lolium multiflorum, 504 h, read-out: herbicidal effect against LOLMU (Lolium multiflorum)) | pest or weed control at 80 g/ha ([8]; Setaria viridis, 504 h, read-out: herbicidal effect against SETVI (Setaria viridis)) | pest or weed control at 80 g/ha ([9]; 504 h, Avena fatua, read-out: herbicidal effect against AVEFA (Avena fatua))
CCc1cc(C)cc(CC)c1C1=C(O)C2CC3(CC2C1=O)OC(C)CC(C)O3 (stereo not shown) [I-a-15] | 80% | 70% | 100% | 70% | 90% | 100% | 100% | 90% | 90% | 40% |  |  |  |  | 
CCc1cc(C)cc(CC)c1C1=C(O)[C@H]2CC(=NOCC3CC3)C[C@H]2C1=O (relative stereo) [I-a-31] | 80% | 100% | 100% | 90% | 100% | 100% | 100% | 100% | 80% | 40% |  |  |  |  | 
Cc1cc(C)c(C2=C([O-])C3CC4(CC3C2=O)OCCO4)c(C)c1.[Na+] (stereo not shown) [I-f-11] | 40% | 0% | 100% | 20% | 60% | 90% | 100% | 80% | 40% | 50% |  |  |  |  | 
CCc1cc(C)cc(CC)c1C1=C(OC(=O)OC(C)C)C2CC3(COC(C)(C)O3)CC2C1=O (stereo not shown) [I-c-2] | 90% | 40% | 100% | 60% | 90% | 40% | 100% | 40% | 40% | 50% |  |  |  |  | 
CCc1cc(C)cc(CC)c1C1=C([O-])C2CC3(CC2C1=O)OC(C)CC(C)O3.[Na+] (stereo not shown) [I-f-2] | 90% | 90% | 100% | 60% | 80% | 100% | 100% | 90% | 90% | 50% |  |  |  |  | 
CCc1cc(C)cc(CC)c1C1=C(O)C2CC(=NOC(C)(C)C)CC2C1=O (stereo not shown) [I-a-68] | 40% | 50% | 80% | 0% | 90% | 100% | 100% | 40% | 0% | 40% |  |  |  |  | 
CCc1cc(C)cc(CC)c1C1=C([O-])C2CC3(CC2C1=O)OCCO3.[Na+] (stereo not shown) [I-f-15] | 100% | 100% | 100% | 90% | 80% | 100% | 100% | 100% | 90% | 60% |  |  |  |  | 
CCc1cc(C)cc(CC)c1C1=C(OC(=O)C(C)C)C2CC3(CC2C1=O)OCC(C)CO3 (stereo not shown) [I-b-14] | 100% | 100% | 100% | 100% | 100% | 100% | 100% | 100% | 100% | 70% |  |  |  |  | 
CCc1cc(C)cc(C)c1C1=C(OC(=O)C(C)(C)C)C2CC3(CC2C1=O)OCCCCO3 (stereo not shown) [I-b-78] | 100% | 100% | 100% | 60% | 100% | 100% | 100% | 70% | 70% | 60% |  |  |  |  | 
COc1cc(C)cc(C)c1C1=C([O-])C2CC3(CC2C1=O)OCCCCO3.[Na+] (stereo not shown) [I-f-5] | 90% | 70% | 90% | 90% | 100% | 100% | 100% | 100% | 100% | 70% |  |  |  |  | 
CCc1cc(C)cc(C)c1C1=C(O)C2CC3(COC(C)(C)O3)CC2C1=O (stereo not shown) [I-a-62] | 100% | 100% | 100% | 90% | 100% | 100% | 100% | 90% | 80% | 40% |  |  |  |  | 
C=C1CC2C(=O)C(c3c(CC)cc(C)cc3CC)=C(OC(=O)OCC)C2C1 (stereo not shown) [I-c-5, 2-(2,6-diethyl-4-methylphenyl)-5-methylidene-3-oxo-3,3a,4,5,6,6a-hexahydropentalen-1-yl ethyl carbonate] | 80% | 90% | 80% | 80% |  |  |  |  |  | 80% | 20% | 100% | 90% | 90% | 30%
C=C1CC2C(=O)C(c3c(C)cc(C)cc3C)=C(OC(=O)C(C)(C)C)C2C1 (stereo not shown) [I-b-37] | 90% | 70% | 70% | 70% | 0% | 90% | 70% | 90% | 0% | 40% |  |  |  |  | 
